These results are taken from PMC4854315, “Discovery of a novel allosteric inhibitor-binding site in ERK5: comparison with the canonical kinase hinge ATP-binding site” (Acta Crystallographica. Section D, Structural Biology, 2016).

Experiment in all cases: Z'-LYTE kinase panel
Common to all, as to format: biochemical

One experiment has as its target T1, PHKG2 (Homo sapiens, UniProt P15735).
T1 construct: purchased ThermoFisher (SelectScreen, Z'-LYTE)
T1 sequence (P15735 1-406): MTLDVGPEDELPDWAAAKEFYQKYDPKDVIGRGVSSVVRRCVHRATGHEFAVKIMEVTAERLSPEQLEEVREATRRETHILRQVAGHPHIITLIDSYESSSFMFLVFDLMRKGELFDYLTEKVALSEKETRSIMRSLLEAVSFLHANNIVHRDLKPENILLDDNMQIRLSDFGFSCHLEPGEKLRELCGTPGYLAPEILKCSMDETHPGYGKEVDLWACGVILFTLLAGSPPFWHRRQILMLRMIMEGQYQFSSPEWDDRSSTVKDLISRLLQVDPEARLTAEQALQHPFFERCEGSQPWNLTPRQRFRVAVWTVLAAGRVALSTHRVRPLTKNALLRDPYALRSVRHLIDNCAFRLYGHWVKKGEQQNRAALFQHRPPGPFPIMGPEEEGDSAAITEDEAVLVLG
How it is done:
(§1) Compounds 2, 3 and 5 were tested for activity against the 225 kinases in the ThermoFisher standard kinase panel. The standard Z′-LYTE assay protocol (ThermoFisher) was used to measure the percentage inhibition at 10 µM compound concentration (details are provided in the supporting information).

For a further experiment, the target named is T2, BRSK1 (SAD1) (Homo sapiens, UniProt Q8TDC3).
T2 construct: purchased ThermoFisher (SelectScreen, Z'-LYTE)
T2 sequence (Q8TDC3 1-778): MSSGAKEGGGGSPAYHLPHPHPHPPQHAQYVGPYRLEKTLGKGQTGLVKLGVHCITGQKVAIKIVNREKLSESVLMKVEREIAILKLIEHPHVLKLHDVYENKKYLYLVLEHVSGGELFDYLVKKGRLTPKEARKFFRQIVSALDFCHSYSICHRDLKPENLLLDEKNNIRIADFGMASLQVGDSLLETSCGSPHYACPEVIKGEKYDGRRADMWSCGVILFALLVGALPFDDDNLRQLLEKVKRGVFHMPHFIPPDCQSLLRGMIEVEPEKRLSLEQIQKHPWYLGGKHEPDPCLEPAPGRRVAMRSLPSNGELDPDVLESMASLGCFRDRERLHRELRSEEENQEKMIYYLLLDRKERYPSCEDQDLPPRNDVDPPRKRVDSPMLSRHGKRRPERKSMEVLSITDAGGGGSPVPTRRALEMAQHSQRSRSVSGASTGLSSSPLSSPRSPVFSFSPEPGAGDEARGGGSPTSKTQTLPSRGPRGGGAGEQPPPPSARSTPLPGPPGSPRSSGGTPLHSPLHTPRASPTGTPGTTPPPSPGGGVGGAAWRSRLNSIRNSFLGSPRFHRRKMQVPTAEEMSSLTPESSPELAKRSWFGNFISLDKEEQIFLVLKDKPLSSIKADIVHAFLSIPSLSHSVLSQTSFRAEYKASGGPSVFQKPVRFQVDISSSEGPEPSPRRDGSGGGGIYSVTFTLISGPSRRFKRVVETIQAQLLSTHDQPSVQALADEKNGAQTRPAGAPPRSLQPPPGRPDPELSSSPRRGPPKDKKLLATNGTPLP
The method, then:
as §1

For a further experiment, the target named is T3, PAK2 (PAK65) (Homo sapiens, UniProt Q13177).
T3 construct: purchased ThermoFisher (SelectScreen, Z'-LYTE)
How it is done:
as §1

A further experiment addresses T4, CHEK1 (CHK1) (Homo sapiens, UniProt O14757).
T4 construct: purchased ThermoFisher (SelectScreen, Z'-LYTE)
T4 sequence (O14757 1-476): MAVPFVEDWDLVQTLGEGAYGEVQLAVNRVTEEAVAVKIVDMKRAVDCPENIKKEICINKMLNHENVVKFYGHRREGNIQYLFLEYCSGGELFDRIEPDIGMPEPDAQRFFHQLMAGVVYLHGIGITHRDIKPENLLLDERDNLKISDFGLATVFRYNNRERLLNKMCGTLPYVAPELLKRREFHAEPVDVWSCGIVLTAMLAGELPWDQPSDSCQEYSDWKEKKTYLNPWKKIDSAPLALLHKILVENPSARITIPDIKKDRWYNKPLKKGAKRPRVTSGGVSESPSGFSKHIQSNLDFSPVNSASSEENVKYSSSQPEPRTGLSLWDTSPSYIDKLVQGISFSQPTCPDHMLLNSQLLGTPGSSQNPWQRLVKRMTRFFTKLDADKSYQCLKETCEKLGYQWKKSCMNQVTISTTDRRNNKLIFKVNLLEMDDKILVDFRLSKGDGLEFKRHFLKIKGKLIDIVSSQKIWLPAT
The method, then:
as §1

Another experiment addresses T5, MERTK (cMER) (Homo sapiens, UniProt Q12866).
T5 construct: purchased ThermoFisher (SelectScreen, Z'-LYTE)
T5 sequence (Q12866 21-999): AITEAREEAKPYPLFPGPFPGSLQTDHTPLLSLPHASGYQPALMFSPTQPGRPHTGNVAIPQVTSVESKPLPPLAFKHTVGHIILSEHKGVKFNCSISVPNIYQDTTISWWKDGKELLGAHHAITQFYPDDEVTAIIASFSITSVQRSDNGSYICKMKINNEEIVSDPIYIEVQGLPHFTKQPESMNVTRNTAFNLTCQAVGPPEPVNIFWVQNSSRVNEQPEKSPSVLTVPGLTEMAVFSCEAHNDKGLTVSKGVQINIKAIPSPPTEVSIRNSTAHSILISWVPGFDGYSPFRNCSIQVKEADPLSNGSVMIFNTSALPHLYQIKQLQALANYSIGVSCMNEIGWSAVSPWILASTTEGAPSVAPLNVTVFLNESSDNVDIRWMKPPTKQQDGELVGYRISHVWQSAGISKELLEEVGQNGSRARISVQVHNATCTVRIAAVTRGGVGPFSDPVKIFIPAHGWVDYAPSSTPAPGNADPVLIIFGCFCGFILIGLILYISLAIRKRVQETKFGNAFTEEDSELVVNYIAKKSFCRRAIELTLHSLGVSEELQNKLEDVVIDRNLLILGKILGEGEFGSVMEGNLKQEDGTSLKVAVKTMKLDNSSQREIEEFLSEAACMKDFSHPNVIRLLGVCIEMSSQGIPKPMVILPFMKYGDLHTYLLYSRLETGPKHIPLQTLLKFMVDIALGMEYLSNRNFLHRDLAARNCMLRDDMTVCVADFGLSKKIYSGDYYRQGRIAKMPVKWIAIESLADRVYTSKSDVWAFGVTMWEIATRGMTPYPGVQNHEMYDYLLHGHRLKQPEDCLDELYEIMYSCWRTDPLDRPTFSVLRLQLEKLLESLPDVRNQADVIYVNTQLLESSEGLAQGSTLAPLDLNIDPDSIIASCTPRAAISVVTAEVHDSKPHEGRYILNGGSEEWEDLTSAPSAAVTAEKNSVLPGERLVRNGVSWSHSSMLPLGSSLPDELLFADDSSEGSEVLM
How it is done:
as §1

The target in the next experiment is T6, RPS6KA5 (MSK1) (Homo sapiens, UniProt O75582).
T6 construct: purchased ThermoFisher (SelectScreen, Z'-LYTE)
The method, then:
as §1

For the next experiment, the target named is T7, JAK2 (Homo sapiens, UniProt O60674).
T7 construct: purchased ThermoFisher (SelectScreen, Z'-LYTE)
How it is done:
as §1

Broadly, the inhibition is the relative decrease from the control value, in per cent.

T7 sequence (O60674 whole entry): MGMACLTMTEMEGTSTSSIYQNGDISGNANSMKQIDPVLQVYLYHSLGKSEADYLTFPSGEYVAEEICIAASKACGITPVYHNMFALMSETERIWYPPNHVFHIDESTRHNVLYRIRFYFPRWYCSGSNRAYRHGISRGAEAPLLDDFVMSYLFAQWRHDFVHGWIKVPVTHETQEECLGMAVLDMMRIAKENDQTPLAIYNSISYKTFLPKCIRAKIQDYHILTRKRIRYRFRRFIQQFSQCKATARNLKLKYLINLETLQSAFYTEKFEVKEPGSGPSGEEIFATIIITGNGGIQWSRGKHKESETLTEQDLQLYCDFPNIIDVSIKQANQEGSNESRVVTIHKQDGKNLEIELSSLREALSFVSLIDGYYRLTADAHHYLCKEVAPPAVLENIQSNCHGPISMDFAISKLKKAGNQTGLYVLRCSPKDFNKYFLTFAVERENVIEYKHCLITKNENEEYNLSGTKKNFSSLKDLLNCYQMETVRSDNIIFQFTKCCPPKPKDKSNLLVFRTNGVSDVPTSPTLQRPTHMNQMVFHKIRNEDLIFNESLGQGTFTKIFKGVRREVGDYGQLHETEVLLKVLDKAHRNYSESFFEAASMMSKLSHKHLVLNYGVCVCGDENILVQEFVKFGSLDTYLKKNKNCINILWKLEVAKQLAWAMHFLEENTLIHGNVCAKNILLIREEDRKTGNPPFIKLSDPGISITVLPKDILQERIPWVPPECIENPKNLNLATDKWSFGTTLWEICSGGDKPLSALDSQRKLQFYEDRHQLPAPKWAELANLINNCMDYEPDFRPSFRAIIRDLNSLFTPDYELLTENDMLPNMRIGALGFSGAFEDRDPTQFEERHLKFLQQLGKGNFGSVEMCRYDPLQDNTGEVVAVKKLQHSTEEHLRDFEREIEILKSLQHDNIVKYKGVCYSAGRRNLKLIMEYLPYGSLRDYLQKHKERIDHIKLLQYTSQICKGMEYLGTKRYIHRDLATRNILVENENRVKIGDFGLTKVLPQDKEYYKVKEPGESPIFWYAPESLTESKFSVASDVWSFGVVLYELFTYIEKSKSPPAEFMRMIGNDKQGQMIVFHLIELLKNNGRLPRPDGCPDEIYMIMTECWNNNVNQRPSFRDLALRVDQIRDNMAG
T6 sequence (O75582 whole entry): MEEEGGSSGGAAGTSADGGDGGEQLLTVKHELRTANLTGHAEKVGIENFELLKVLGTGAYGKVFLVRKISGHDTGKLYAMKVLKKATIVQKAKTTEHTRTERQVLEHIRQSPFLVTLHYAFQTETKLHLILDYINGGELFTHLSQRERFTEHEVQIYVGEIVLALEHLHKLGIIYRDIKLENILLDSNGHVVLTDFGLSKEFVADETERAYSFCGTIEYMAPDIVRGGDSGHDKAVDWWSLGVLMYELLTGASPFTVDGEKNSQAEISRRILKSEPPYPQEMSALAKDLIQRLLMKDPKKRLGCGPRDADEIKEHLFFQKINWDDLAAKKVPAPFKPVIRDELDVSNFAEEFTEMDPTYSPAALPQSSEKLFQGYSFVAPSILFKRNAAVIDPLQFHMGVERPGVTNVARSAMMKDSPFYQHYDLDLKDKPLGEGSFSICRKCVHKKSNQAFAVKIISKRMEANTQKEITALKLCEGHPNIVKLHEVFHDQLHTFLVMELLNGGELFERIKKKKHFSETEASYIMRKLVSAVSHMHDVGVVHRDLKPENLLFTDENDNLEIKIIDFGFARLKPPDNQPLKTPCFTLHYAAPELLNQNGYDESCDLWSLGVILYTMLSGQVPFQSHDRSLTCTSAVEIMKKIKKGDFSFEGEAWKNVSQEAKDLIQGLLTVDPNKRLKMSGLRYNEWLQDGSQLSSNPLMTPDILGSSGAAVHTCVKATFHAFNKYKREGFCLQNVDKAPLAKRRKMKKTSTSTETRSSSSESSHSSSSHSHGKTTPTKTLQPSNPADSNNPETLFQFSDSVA
T3 sequence (Q13177 whole entry): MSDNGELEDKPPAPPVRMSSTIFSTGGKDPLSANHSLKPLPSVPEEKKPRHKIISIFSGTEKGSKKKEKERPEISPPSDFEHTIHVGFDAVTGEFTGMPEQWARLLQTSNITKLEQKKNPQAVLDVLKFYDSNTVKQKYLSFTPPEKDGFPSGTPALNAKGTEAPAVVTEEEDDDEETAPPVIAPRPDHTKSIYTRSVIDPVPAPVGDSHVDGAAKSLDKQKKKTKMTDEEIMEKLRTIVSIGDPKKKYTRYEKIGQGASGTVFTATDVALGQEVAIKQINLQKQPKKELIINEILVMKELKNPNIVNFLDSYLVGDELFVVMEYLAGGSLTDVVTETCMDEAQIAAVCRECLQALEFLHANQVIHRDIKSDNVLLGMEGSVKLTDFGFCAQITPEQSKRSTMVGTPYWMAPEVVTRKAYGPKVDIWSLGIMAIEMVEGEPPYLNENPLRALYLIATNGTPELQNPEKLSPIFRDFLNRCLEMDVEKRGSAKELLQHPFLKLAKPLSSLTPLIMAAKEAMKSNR

Take `Cc1ncc(-c2nc(Nc3ccc(C(=O)NCCN4CCCCC4)cc3)ncc2F)n1C(C)C` [Compound 3]: the inhibition at 10 µM against PHKG2 is 79%; against BRSK1 (SAD1), 91%; against PAK2 (PAK65), 54%; on CHEK1 (CHK1), 87%; against MERTK (cMER), 99%; on RPS6KA5 (MSK1) it was 86%. Further, at JAK2, the inhibition at 10 µM turned out to be 92%.

With `Cc1cc(Nc2nc(N)nn2C(=O)NC(C)C)ccc1Cl` [Compound 5], the inhibition at 10 µM against PHKG2 is -2.57%; at BRSK1 (SAD1) it was 35%; against PAK2 (PAK65), -1.24%; against CHEK1 (CHK1) it was 14%; on MERTK (cMER), 43%; at RPS6KA5 (MSK1), 6.35%. The inhibition at 10 µM on JAK2 came to 66%.

For the molecule “XMD8-92 [Compound 2, reference compound]”, at PHKG2 (10 µM compound, ATP Km app), the “PHKG2 % Inhibition” value is 19%. At BRSK1 (SAD1) (10 µM compound, ATP Km app), the “BRSK1 (SAD1) % Inhibition” value stood at 80%. Besides, the “PAK2 (PAK65) % Inhibition” value on PAK2 (PAK65) (10 µM compound, ATP Km app) came out at 12%. Moreover, the “CHEK1 (CHK1) % Inhibition” value on CHEK1 (CHK1) (10 µM compound, ATP Km app) is 8%. At MERTK (cMER) (10 µM compound, ATP Km app), the “MERTK (cMER) % Inhibition” value stood at 0.252%. Moreover, at RPS6KA5 (MSK1) (10 µM compound, ATP Km app), the “RPS6KA5 (MSK1) % Inhibition” value is on record as 47%. Besides, the “JAK2 % Inhibition” value on JAK2 (10 µM compound, ATP Km app) is 95%.
